Assay results published in ChEMBL document CHEMBL5385962, “Beyond inhibition against the PD-1/PD-L1 pathway: development of PD-L1 inhibitors targeting internalization and degradation of PD-L1” (RSC Med Chem, 2024).
Each block holds one compound with its values, some of them ahead of it.

Key:
MC-38 [1] = assay: Antitumor activity against mouse MC38 cells xenografted in BALB/c nude mouse assessed as inhibition of tumor growth at 20 mg/kg, po BID administered twice daily for 14 days relative to control; format: functional; design: scale not given: the % may be the effect or the level left; conditions: time 14 day
MC-38 [2] = assay: Antitumor activity against mouse MC38 cells xenografted in BALB/c nude mouse assessed as inhibition of tumor growth at 2 mg/kg, po BID administered twice daily for 14 days relative to control; format: functional; design: scale not given: the % may be the effect or the level left; conditions: time 14 day
MC-38 [3] = assay: Antitumor activity against mouse MC38 cells xenografted in BALB/c nude mouse assessed as inhibition of tumor growth at 200 mg/kg, po BID administered twice daily for 14 days relative to control; format: functional; design: scale not given: the % may be the effect or the level left; conditions: time 14 day
[4] = target: Programmed cell death 1 ligand 1 (Mus musculus) (UniProt Q9EP73); assay: Induction of PD-L1 degradation in mouse B16-F10 cells
[5] = target: Programmed cell death 1 ligand 1 (Mus musculus) (UniProt Q9EP73); assay: Induction of PD-L1 degradation in mouse CT26 cells
B16-F10 = assay: Antiproliferative activity against mouse B16-F10 cells assessed as reduction in cell viability; format: functional, cell-based
A-375 = assay: Antiproliferative activity against human A-375 cells assessed as reduction in cell viability; format: functional, cell-based
BGC-823 = assay: PD-L1 degradation in human PD-L1 […] BGC-823 cells assessed as PD-L1 degradation rate at 10 to 20 uM incubated for 5 days by flow cytometry relative to control; conditions: dose 10-20 µM, time 5 day
[6] = Antitumor activity against humanized mouse MC38-hPD-L1 cells implanted in hPD-1 knockin C57BL/6 mouse assessed as reduction in tumor cell proliferation at 10 mg/kg, ip administered for 7 days starting from day 7 post tumor implantation by flow cytometry analysis relative to control; design: scale not given: the % may be the effect or the level left; conditions: time 7 day
[7] = target: Programmed cell death protein 1/Programmed cell death 1 ligand 1 (Homo sapiens, UniProt Q9NZQ7); assay: Inhibition of PD-1/PD-L1 interaction (unknown origin) incubated for 24 hrs by HTRF assay; format: protein-complex assay
Sequence of Programmed cell death protein 1/Programmed cell death 1 ligand 1 (Q15116 whole entry): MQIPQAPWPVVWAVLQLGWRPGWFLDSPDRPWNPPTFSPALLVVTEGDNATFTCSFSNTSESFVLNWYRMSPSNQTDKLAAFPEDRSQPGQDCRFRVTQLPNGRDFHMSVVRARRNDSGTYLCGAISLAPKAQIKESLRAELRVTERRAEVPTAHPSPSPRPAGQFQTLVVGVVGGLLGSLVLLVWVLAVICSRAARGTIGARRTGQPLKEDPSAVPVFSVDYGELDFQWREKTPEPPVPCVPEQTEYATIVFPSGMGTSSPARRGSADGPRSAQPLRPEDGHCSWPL
Sequence of Programmed cell death protein 1/Programmed cell death 1 ligand 1 (Q9NZQ7 whole entry): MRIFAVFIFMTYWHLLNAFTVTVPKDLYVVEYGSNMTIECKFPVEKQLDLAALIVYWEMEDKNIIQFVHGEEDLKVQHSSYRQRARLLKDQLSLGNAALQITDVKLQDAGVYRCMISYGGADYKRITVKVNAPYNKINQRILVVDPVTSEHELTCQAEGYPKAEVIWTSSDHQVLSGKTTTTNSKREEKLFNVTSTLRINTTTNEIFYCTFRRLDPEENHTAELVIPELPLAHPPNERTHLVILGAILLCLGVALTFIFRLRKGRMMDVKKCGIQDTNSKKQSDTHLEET

Compound: Cc1c(Nc2nccc3cc(CN4CC[C@@H](O)C4)cnc23)cccc1-c1cccc(-c2nc3cc(CN4CC[C@@H](C(=O)O)C4)cc(C#N)c3o2)c1C
Activity (MC-38 [1]): 66%
Activity (MC-38 [2]): 32%
Activity (MC-38 [3]): 69%

Compound: Cc1c(COc2cc(OCc3cccc(C#N)c3)c(CN3C[C@H](O)C[C@@H]3C(=O)O)cc2Cl)cccc1-c1ccc2c(c1)OCCO2
DC50 [4]: 390 nM
DC50 [5]: 350 nM

IC50 (B16-F10): 14000 nM
IC50 (A-375): 8070 nM
Compound: COc1cc(OCc2cccc(-c3ccccc3)c2C)cc(OC)c1CNCCNC(=O)c1cn(CCOCCOCCOCCNc2cccc3c2C(=O)N(C2CCC(=O)NC2=O)C3=O)nn1 (stereo not given)

Compound: Cc1nc(C)c(C(=O)OCc2ccccc2)c(CC(C)(C)C)c1C(=O)OCc1ccccc1
PD-L1 degradation rate (BGC-823): 66.99%

Compound: Cc1c(NC(=O)c2ccc(CNCCO)cn2)cccc1-c1cccc(NC(=O)c2ccc(CNCCO)cn2)c1C
Activity [6]: 60.4%

Compound: Cc1c(NC(=O)c2nc3c(n2C)CCN(C[C@H](C)O)C3)cccc1-c1cccc(NC(=O)c2nc3c(n2C)CCN(C)C3)c1Cl
IC50 [7]: < 1 nM
